# According to patent US12653181B2, “Control of ripening and senescence in pre-harvest and post-harvest plants and plant materials by manipulating alternative oxidase activity” (Washington State University, priority 2012, dated 2026):
# “Also recorded” adds a separate entry of the source.
# Legend:
# [1] = tested on: Wild type tomatoes (var. 'Ailsa Craig'); assay: Ripening (visual pigmentation) of wild type mature green tomato fruit; format: in vivo; details: for ripening response (pigmentation green to red) versus deionized water control: treated or injected with 1 mL of 2% solution, 7 days
# Bartlett pears = assay: Ethylene and CO2 evolution of 1-MCP treated Bartlett pears in air-tight chambers (GC-FID, gas analyzer); format: in vivo, Pyrus communis
# Description: Thereafter, each experimental group of fruit was placed in a separate air-tight chamber connected to a gas chromatography (GC) instrument configured to draw samples every 8 hours over the course of 5 days, to measure ethylene via a flame ionizing detector (FID), and to measure CO2 via a gas analyzer. The experiment was performed with 4 pears per chamber in 3 replicates per experimental group. Monitoring was performed to detect minor variation in air flow rates in all experimental chambers used and detected variations were accounted for in subsequent calculations.
# whole pears = assay: Firmness of whole pears after 24 h immersion in glyoxylic acid solution (penetrometer); format: in vivo, pear; details: after 6 days
# Description: In order to ripen whole pear fruit pretreated with 1-MCP, the fruits were treated by immersion in 0 mM, 0.1 mM, 0.25 mM, 0.5 mM glyoxylic acid. In other experiments, the fruits were treated by ambient fogging of fruit with 1 liter of solution of 1% (0.135 M), 2% (0.270 M) and 3% (0.405 M) glyoxylic acid solution (determined with 74 as the molecular weight of glyoxylic acid). The ambient fogging was carried out in a 192,000 cm^3 volume chamber using an ultrasonic humidifier. Various indicators of ripening were assayed thereafter. In a first assay, whole pears pre-treated with 1-MCP were immersed in 0 mM, 0.1 mM, 0.25 mM, or 0.5 mM glyoxylic acid solution for 24 hours. The fruit was assayed for firmness using a penetrometer six days after the immersion treatment. FIG. 7 graphically illustrates the reduction in firmness (i.e., development of softness) in pear fruit treated with various concentrations of glyoxylic acid. Non-1-MCP treated fruit (light bars) and 1-MCP treated fruit (dark bars) responded differently to glyoxylic acid treatment.
# [2] = tested on: 1-MCP pre-treated fruit (whole pear); assay: Firmness and Brix of 1-MCP pre-treated whole pears after ambient fogging with glyoxylic acid; format: in vivo; details: 1% (0.135 M) ambient fogging
# Description: In order to ripen whole pear fruit pretreated with 1-MCP, the fruits were treated by immersion in 0 mM, 0.1 mM, 0.25 mM, 0.5 mM glyoxylic acid. In other experiments, the fruits were treated by ambient fogging of fruit with 1 liter of solution of 1% (0.135 M), 2% (0.270 M) and 3% (0.405 M) glyoxylic acid solution (determined with 74 as the molecular weight of glyoxylic acid). The ambient fogging was carried out in a 192,000 cm^3 volume chamber using an ultrasonic humidifier. Various indicators of ripening were assayed thereafter.
# Next, 1-MCP pre-treated fruit were treated with glyoxylic acid using ambient fogging at 0% or 1% (0.135 M) glyoxylic acid. In this experiment, the fruit firmness was measured at two time points—immediately after the fogging treatment and again 8 days later using a penetrometer. […] The fruit were also assessed for ripeness by assaying the Brix values, which are indicative of total soluble solids and also serve as an industry standard for fruit ripening. […] All these experiments have been repeated multiple times and have been consistent with the above data.
# [3] = tested on: fruit slices of 1-MCP pre-treated pears; assay: Ethylene from slices of 1-MCP pre-treated pears immersed in glyoxylic acid, airtight jar; format: in vivo, pear; details: immersed 12-24 hours, measured after 8 hours
# Description: The effect of glyoxylic acid on the restarting of ripening after 1-MCP-mediated arrest was also assayed with fruit that was sliced. Whole unripe pears were pre-treated with 1-MCP according to standard practice. The unripe pre-treated fruit were sliced and subject to glyoxylic acid treatments to assess its ability to induce ripening in the sliced fruit. First, fruit slices were immersed in 0.5 mM and 2.5 mM glyoxylic acid solution for 12-24 hours and placed in an airtight jar. Ethylene levels were measured after 8 hours. […] Slices immersed in the 2.5 mM glyoxylic also produced more (approximately 2-fold more) ethylene than the controls, although the increase in ethylene levels was not as high as for the 0.5 mM treatment.
# sliced pear fruit = assay: Ethylene evolved from sliced 1-MCP fruit treated with glyoxylic acid in sealed modified atmosphere bag; format: in vivo
# Description: Next, a modified protocol was followed to expose fruit slices derived from 1-MCP pre-treated fruit to solutions of glyoxylic acid. Glyoxylic acid solutions ranging from 0.005% (0.675 mM), 0.150% (20.25 mM), 0.5% ([…]), 1% (0.135 M), 2% (0.270 M), 2.5% (0.338 M) and 3% (0.405 M) were prepared either alone or in conjunction with the Nature seal solution, which contains antioxidants that prevent fruit oxidation. 1-MCP fruit was sliced and treated with the 0.005%, 0.150%, 0.5% or 2.5% glyoxylic acid solutions and placed in a modified, sealed atmosphere bag. The amount of evolved ethylene was measured directly from the sealed bag of fruit. […] Finally, the 1-MCP fruit that were sliced and treated with 1%, 2% and 3% glyoxylic acid were evaluated in consumer preference trials in 2014 and 2015.
# [4] = tested on: whole pears with or without 1-MCP pre-treatment; assay: Internal ethylene of pears after ambient fogging with glyoxylic acid (gas extraction, GC/MS); format: in vivo, pear; details: both 1-MCP pre-treated and non-1-MCP pre-treated fruit
# Description: As an additional confirmation of glyoxylic acid-mediated ripening of 1-MCP pre-treated pears, the internal ethylene of the fruit was also measured. First, the whole fruit with or without 1-MCP pre-treatment were treated with 0.5% ([…]) or 1% (0.135 M) glyoxylic acid using ambient fogging. Thereafter, one quarter of four separate pears from each treatment was sliced into four pieces and placed into a gas extraction chamber. A vacuum was created using an aspirator. For each experiment, 0.5 ml of extracted ethylene gas was injected into the GC/MS in three replicates. Measurements of ethylene in ppm were calculated using a previously established standard curve.
# rin tomato fruit = assay: Ripening (visual pigmentation) of rin mutant tomato fruit; format: in vivo; details: for ripening response (change in pigmentation) of rin tomato fruit: 2% GLA, observed over 14 days; for pigment response in untreated rin fruit on the same branches as treated fruit: GLA injection to a single fruit
# Haas avocado = assay: Avocado fruit flesh firmness after atomized GLA exposure (penetrometer); format: in vivo; details: for percentage of terminal ripened firmness achieved: 3% GLA 16 hours
# Description: (§1) Fruits: Avocado and Mango fruits were purchased from Pullman Walmart and half were immediately placed in separate chambers for administration of glyoxylic acid, half were left on the bench top at 20° C.
# (§2) GLA treatment: Humidification via sonication was accomplished by administering 1 liter of 3% (m/V) glyoxylic acid (GLA) solution in deionized water into the reservoir of a Crane humidifier model EE-5301. Atomized GLA solution was directed via surgical tubing from the humidifier into a custom acrylic chamber measuring approximately 40×60×60 cm containing 12 pears per treatment for 16 hours. Fruits were elevated from the chamber floor on metal baking racks to allow for exposure to GLA on all faces. One (1) 1 cm diameter port allowed for gas exchange between the atmosphere and chamber. A thick cloud of atomized GLA solution was visible in each chamber for the duration of each experimental exposure time. All experiments were conducted at 20° C.
# (§3) Firmness measurements: Fruit firmness was measured via FTA penetrometer (GUSS Manufacturing, Norfolk, VA) at three equidistant locations around the middle of each fruit. Therefore, one biological replicate yielded three technical replicates. For each penetrometer measurement, approximately 2 cm^2 of fruit epidermal tissue was removed with a fruit peeler. Firmness measurements were taken at the locations on the fruit where epidermal tissue was removed. Firmness measurements were taken from three biological replicates per treatment at 1, 3, 5 and 7 days post treatment (DPT).
# Firmness normalization: Firmness measurements were normalized to account for variability in starting fruit flesh firmness. At the start of each experiment, three untreated fruits were selected, and three fruit flesh measurements were taken from each and averaged. Firmness measurements from each exposure time treatment are reported as a percentage of the starting fruit flesh firmness average.
# Mango = Mango fruit flesh firmness after atomized GLA exposure (penetrometer); format: in vivo; details: 3% GLA, 16 hours, readings confounded by variable rinds
# Description: as §1, §2
# as §3, with “Firmness measurements were taken from three biological replicates per treatment at 1, 3, 5 and 7 days post treatment (DPT).” left out
# [5] = tested on: Non-MCP treated D'Anjou pears; assay: Flesh firmness of non-MCP treated D'Anjou pears after atomized GLA exposure (penetrometer); format: in vivo, pear; details: 3% GLA, various exposure times, 1, 3, 5, 7 days post exposure
# Description: Pear fruit: Non-MCP treated D'Anjou pears picked on Oct. 4, 2019 were obtained from Blue Bird packing house (Blue Bird Inc., Wenatchee Washington) and stored at 1° C. until use.
# as §2, with “GLA” for “(m/V) glyoxylic acid (GLA)”, “solution” for “solution in deionized water”, “treatment. Pears” for “treatment for 16 hours. Fruits”
# as §3, with “Firmness measurements were taken from three biological replicates per treatment at 1, 3, 5 and 7 days post treatment (DPT).” left out
compound,measurement,setting,value
"[Cl-].[Cl-].[Co+2] [CoCl2, reference compound]",visible ripening response,[1]; in vivo,no visible ripening response
"S [RC-1, hydrogen sulfide]",evolution of ethylene,Bartlett pears; 0.5 mM H2S,clear and steady increase in the evolution of ethylene
same,level of respiration (evolved CO2),"Bartlett pears; 0.5 mM H2S (RC-1), 5 days monitoring",positive trend
same,level of respiration (evolved CO2),"Bartlett pears; 0.5 mM H2S (RC-1), 5 days monitoring, listed as H2S",generally positive trend
same,level of ethylene versus control fruit,Bartlett pears; 2.5 mM H2S,indistinguishable and very low
same,level of respiration (evolved CO2),"Bartlett pears; 2.5 mM H2S, perhaps a stress response",higher levels of carbon dioxide
same,time post-treatment at which ethylene evolution is observed,"Bartlett pears; RC-1, pear fruit blocked for ripening by 1-MCP",48 h
O=CC(=O)O [glyoxylic acid],time at which ethylene evolution is observed,"Bartlett pears; 0.25 mM RC-2, pear fruit blocked for ripening by 1-MCP",≤ 16 h
same,evolution of ethylene,Bartlett pears; 0.25 mM glyoxylic acid (RC-2),clear and steady increase in the evolution of ethylene
same,level of ethylene versus control fruit,"Bartlett pears; 1, 2.5 and 10 mM glyoxylic acid",indistinguishable and very low
same,maturation in pears after 1-MCP treatment,Bartlett pears; as little as 0.25 mM,induces maturation
same,firmness effect in 1-MCP treated fruit,whole pears; 0.5 mM immersion solution,especially enhanced over control
same,firmness of non-1-MCP treated fruit,whole pears; 0.5 mM,reduction in firmness is evident
same,firmness of 1-MCP treated fruit,"whole pears; all concentrations (0.1, 0.25, 0.5 mM), 24 h immersion, compared to non-1-MCP treated fruit",drop in firmness
same,fruit firmness,[2]; 8 days,2 lbf
same,Brix values (total soluble solids),[2]; 8 days post fogging,significantly increased brix values
same,ethylene generated relative to control slices,[3]; 0.5 mM,5 fold
same,ethylene generated relative to control slices,[3]; 2.5 mM,approximately 2 fold
same,evolution of ethylene from sliced fruit versus control,"sliced pear fruit; 2.5% (337 mM) solution, sealed atmosphere bag",enhanced the evolution of ethylene; also recorded: significantly increased ethylene production
same,ethylene evolved versus control fruit,sliced pear fruit; some of a range of concentrations (0.005%-2.5%),releases more ethylene than the control fruit
same,internal ethylene evolution,[4]; 0.5% (0.6.75 mM) ambient fogging,effective in inducing the evolution of ethylene
same,internal ethylene evolution,[4]; 1% (0.135 M) ambient fogging,effective in inducing the evolution of ethylene
same,ripening response (pigmentation green to red) versus deionized water control,[1],accelerated ripening
same,ripening response (pigmentation green to red) versus deionized water control,[1]; listed as GLA,accelerated ripening response
same,ripening response (change in pigmentation) of rin tomato fruit,rin tomato fruit,change in pigmentation resembling that achieved at breaker stage in wild type tomatoes
same,ripening response (change in pigmentation) of rin tomato fruit,rin tomato fruit; listed as GLA,enables ripening of rin mutant fruit
same,pigment response in untreated rin fruit on the same branches as treated fruit,rin tomato fruit,systemic
same,pigment response in untreated rin fruit on the same branches as treated fruit,rin tomato fruit; listed as GLA,Systemic pigmentation response
same,percentage of terminal ripened firmness achieved,Haas avocado; one day post treatment (control 31%),81%
same,percentage of terminal ripened firmness achieved,Haas avocado; three days post treatment (control 96%),92%
same,ripening as measured by fruit flesh firmness versus non-GLA control,"Haas avocado; 3% GLA solution, atomized, 16 hours, listed as GLA",significant acceleration of ripening; also recorded: evidence for accelerated ripening
same,ripening as measured by fruit flesh firmness,Mango,trend towards accelerated ripening
same,ripening as measured by pear fruit flesh firmness,[5],trend towards accelerated ripening
